Results published in patent US6750194B1, “Methods of identifying compounds for regulating muscle mass or function using vasoactive intestinal peptide receptors” (The Procter & Gamble Company, priority 2000, dated 2004).
Ends that are not written are not given here.

Columns and labels:
VPAC1 receptor = target: T1, VPAC1 receptor (Homo sapiens, UniProt P32241); conditions: relative to PACAP38; cited from earlier work
T1 sequence (P32241 31-457): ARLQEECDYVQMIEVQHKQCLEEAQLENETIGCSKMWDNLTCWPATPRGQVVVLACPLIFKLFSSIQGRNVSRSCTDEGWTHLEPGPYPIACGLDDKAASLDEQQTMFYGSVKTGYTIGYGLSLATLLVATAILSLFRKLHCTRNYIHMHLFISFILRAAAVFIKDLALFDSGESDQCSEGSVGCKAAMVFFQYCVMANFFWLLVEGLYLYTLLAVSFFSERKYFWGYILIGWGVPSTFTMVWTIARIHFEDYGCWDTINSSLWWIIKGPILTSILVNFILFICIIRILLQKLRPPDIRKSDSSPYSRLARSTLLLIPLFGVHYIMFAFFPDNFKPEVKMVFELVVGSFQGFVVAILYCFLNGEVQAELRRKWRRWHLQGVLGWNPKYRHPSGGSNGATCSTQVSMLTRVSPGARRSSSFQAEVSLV

[1] = test system: denervated tibialis anterior and medial gastrocnemius muscles; test: Mouse denervation atrophy model, agonists subcutaneously 2x daily with theophylline (FIG. 1); assay type: in vivo; conditions: male mice, right sciatic nerve denervation; 0.1 and 0.3 mg/kg s.c. 2x daily + theophylline 30 mg/kg i.p. 2x daily, nine days; versus saline
Protocol: Legend for the X-axis: A: Saline, B: VPAC1R agonist (0.1 mg/kg)+T, C: VPAC1R agonist (0.3 mg/kg)+T, D: VPAC2R agonist (0.1 mg/kg)+T, E: VPAC2R agonist (0.3 mg/kg)+T, F: PACAP-38 (0.1 mg/kg)+T, G: PACAP-38 (0.3 mg/kg)+T.
(VPAC1R agonist), the VPAC2 receptor selective agonist, Ro 25-1553 (VPAC2R agonist), or the VPAC1/VPAC2 receptor nonselective agonist, PACAP-38. Following denervation of the right sciatic nerve, male mice were injected subcutaneously in the midscapular region twice daily, with either the above indicated agents at the doses indicated in FIGS. 1A and 1B or vehicle control (physiological saline) for nine days. These agonists were co-administered with twice daily intra-peritoneal dosing of the phosphodiesterase inhibitor theophylline (T-30 mg/kg) (included to increase the magnitude and the duration of action of cAMP signals induced by the VPAC receptor agonists). On day nine, the medial gastrocnemius and tibialis anterior muscles were removed and weighed to determine the degree of atrophy. […] Statistical significance of the results were determined using ANCOVA (Douglas C. Montgomery, Design and Analysis of Experiments, John Wiley and Sons, New York (2nd ed. 1984)).
The sciatic nerve denervation atrophy model involves anesthetizing the animal followed by the surgical removal of a short segment of either the right or left sciatic nerve, e.g. in mice the sciatic nerve is isolated approximately at the midpoint along the femur and a 3-5 mm segment is removed. This denervates the lower hind limb musculature resulting in atrophy of these muscles. Typically, innervation to the biceps femoris is left intact to provide satisfactory motion of the knee for virtually normal ambulation. Typically, in untreated animals, muscle mass of the denervated muscles is reduced 30-50% ten days following denervation. Following denervation, test compounds are administered e.g., by injection or by continuous infusion, e.g. via implantation of an osmotic minipump (e.g. Alza, Palo Alto, Calif.), to determine their effect on denervation induced skeletal muscle atrophy. At various times following denervation, the animals are euthanized and lower leg muscles are dissected rapidly from both the denervated and nondenervated legs, the muscles, cleaned of tendons and connective tissue, are weighed. The extent of atrophy in the affected muscles is analyzed, for example, by measuring muscle mass, muscle cross-sectional area, myofiber cross-sectional area or contractile protein content.

[2] = test system: glucocorticoid-induced atrophied tibialis anterior and medial gastrocnemius muscles; test: Mouse glucocorticoid (dexamethasone)-induced atrophy model (FIG. 3); assay type: in vivo; conditions: male mice, dexamethasone 1.2 mg/kg/d in drinking water; 0.1 and 0.3 mg/kg s.c. 2x daily + theophylline 30 mg/kg i.p., nine days
Protocol: Legend for the X-axis: 1: Saline+Dexamethasone (1.2 mg/kg/day included in the drinking water), 2: PACAP-38 (0.1 mg/kg)+Dexamethasone+T, 3: PACAP-38 (0.3 mg/kg)+Dexamethasone+T, 4: VPAC1R agonist (0.1 mg/kg)+Dexamethasone+T, 5: VPAC1R agonist (0.3 mg/kg)+Dexamethasone+T, 6: VPAC2R agonist (0.1 mg/kg)+Dexamethasone+T, 7: VPAC2R agonist (0.3 mg/kg)+Dexamethasone+T.
(VPAC1R agonist), the VPAC2 receptor selective agonist, Ro 25-1553 (VPAC2R agonist), or the VPAC1/VPAC2 receptor nonselective agonist, PACAP-38. Following the addition of the glucocorticoid, dexamethasone to the drinking water (1.2 mg/kg/d), male mice were injected subcutaneously in the midscapular region twice daily, with either the above indicated agents at the doses indicated in FIGS. 3A and 3B or vehicle control (physiological saline) for nine days. These agonists were co-administered with twice daily intra-peritoneal dosing of the phosphodiesterase inhibitor theophylline (T—30 mg/kg). Nine days following the initiation of dosing of the VPAC receptor agonists and dexamethasone, the medial gastrocnemius and tibialis anterior muscles were removed and weighed to determine the degree of atrophy. […] Statistical significance of the results were determined using ANCOVA.
The glucocorticoid induced atrophy model involves the administration of a glucocorticoid to the test animal, e.g. 1.2 mg/kg/day of dexamethasone in the drinking water. Typically, in untreated animals, skeletal muscle mass is reduced 30-50% following ten days of dexamethasone administration. Concomitantly with, or following glucocorticoid administration, test compounds are administered e.g., by injection or by continuous infusion to determine their effect on glucocorticoid induced skeletal muscle atrophy. At various times following glucocorticoid administration, the extent of atrophy in the affected muscles is analyzed as described above for the denervation model.

skeletal muscle atrophy = test: Animal models of skeletal muscle atrophy, summary of FIGS. 1-5; assay type: in vivo; conditions: theophylline alone
[3] = test system: denervated tibialis anterior and extensor digitorum longus (EDL) muscles; test: Rat denervation atrophy model (FIG. 5); assay type: in vivo; conditions: male rats, right sciatic nerve denervation; 0.03, 0.1, 0.3 mg/kg s.c. 2x daily + theophylline 30 mg/kg i.p., nine days
Protocol: (§1) Legend for the X-axis: A: Saline, B: VPAC2R agonist (0.03 mg/kg)+T, C: VPAC2R agonist (0.1 mg/kg)+T, D: VPAC2R agonist (0.3 mg/kg)+T.
Following denervation of the right sciatic nerve, male rats were injected subcutaneously in the midscapular region twice daily, with either the VPAC2R receptor agonist at the doses indicated in FIGS. 5A and 5B or vehicle control (physiological saline) for nine days. The VPAC2R receptor agonist was co-administered with twice daily intra-peritoneal dosing of the phosphodiesterase inhibitor theophylline (T—30 mg/kg). On day nine, the tibialis anterior and extensor digitorum longus (EDL) muscles were removed and weighed to determine the degree of atrophy. […] Statistical significance of the results were determined using ANCOVA.
(§2) The sciatic nerve denervation atrophy model involves anesthetizing the animal followed by the surgical removal of a short segment of either the right or left sciatic nerve, e.g. in mice the sciatic nerve is isolated approximately at the midpoint along the femur and a 3-5 mm segment is removed. This denervates the lower hind limb musculature resulting in atrophy of these muscles. […] The extent of atrophy in the affected muscles is analyzed, for example, by measuring muscle mass, muscle cross-sectional area, myofiber cross-sectional area or contractile protein content.

[4] = test system: atrophy of the skeletal muscle of the entire body due to disuse; test: Prophylactic treatment of skeletal muscle atrophy in a comatose subject (Example 11); assay type: in vivo; conditions: human 50 kg, 3 ml of 500 mg/ml with D,L lactic and glycolic acid copolymer i.m. once each month
Protocol: A human subject weighing 50 kg is admitted to the hospital in a comatose state. The subject is treated to prevent atrophy of the skeletal muscle of the entire body due to disuse while in the comatose state. Specifically, once each month while in the coma, the subject is administered, via intramuscular injection, 3 ml of an aqueous solution of pH 6.0 comprising the following: […]

[5] = test system: denervated and non-denervated (control) tibialis anterior and medial gastrocnemius muscles; test: Mouse denervation atrophy model, continuous infusion by osmotic minipump (FIG. 2); assay type: in vivo; conditions: male mice, continuous infusion by osmotic minipump 0.3, 1, 3 mg/kg daily, no theophylline, day nine
Protocol: Legend for the X-axis: A: water infused, B: VPAC1R agonist (0.3 mg/kg), C: VPAC1R agonist (1 mg/kg), D: VPAC1R agonist (3 mg/kg), E: VPAC2R agonist (0.3 mg/kg), F: VPAC2R agonist (1 mg/kg), G: VPAC2R agonist (3 mg/kg), H: PACAP-38 (0.3 mg/kg), I: PACAP-38 (1 mg/kg), PACAP-38 (3 mg/kg).
(VPAC1R agonist), the VPAC2 receptor selective agonist, Ro 25-1553 (VPAC2R agonist), or the VPAC1/VPAC2 receptor nonselective agonist, PACAP-38. Following denervation of the right sciatic nerve, male mice were dosed with the above indicated agents or vehicle control (physiological saline) by continuous infusion using an ALZeT osmotic minipump at 5 μl/hr until the end of the experimental period. The daily delivered dose of the agents are as indicated on FIGS. 2A and 2B. Minipump implantation was performed at the same time as the sciatic nerve denervation. On day nine the medial gastrocnemius and tibialis anterior muscles were removed and weighed to determine the degree of atrophy. […] Statistical significance of the results were determined using ANCOVA.
as §2, with “muscles. Typically, innervation to the biceps femoris is left intact to provide satisfactory motion of the knee for virtually normal ambulation. Typically, in untreated animals, muscle mass of the denervated muscles is reduced 30-50% ten days following denervation.” for “muscles.”

[6] = test system: casting-induced atrophied tibialis anterior muscle and normal medial gastrocnemius muscle; test: Mouse disuse (casting) atrophy model (FIG. 4); assay type: in vivo; conditions: male mice, right hind leg cast; 0.03, 0.1, 0.3 mg/kg s.c. 2x daily + theophylline 30 mg/kg i.p., nine days
Protocol: as §1
Following casting of the right hind leg, male mice were injected subcutaneously in the midscapular region twice daily, with either the above indicated agent at the doses indicated in FIGS. 4A and 4B or vehicle control (physiological saline) for nine days. The VPAC2R agonist was co-administered with twice daily intra-peritoneal dosing of the phosphodiesterase inhibitor theophylline (T—30 mg/kg). On day nine, the medial gastrocnemius and tibialis anterior muscles were removed and weighed to determine the degree of atrophy. […] Statistical significance of the results were determined using ANCOVA.
The leg casting disuse atrophy model involves casting one hind leg of an animal from the knee down through the foot. Typically, muscle mass is reduced 20-40% after ten days of casting. Following casting, test compounds are administered by injection or by continuous infusion via implantation of an osmotic minipump (e.g. Alza, Palo Alto, Calif.) to determine their effect on leg casting induced skeletal muscle atrophy. At various times following leg casting, the extent of atrophy in the affected muscles is analyzed as described above for the denervation model.

VPAC2 receptor = target: T2, VPAC2 receptor (Homo sapiens, UniProt P41587); conditions: relative to PACAP38; cited from earlier work
T2 sequence (P41587 24-438): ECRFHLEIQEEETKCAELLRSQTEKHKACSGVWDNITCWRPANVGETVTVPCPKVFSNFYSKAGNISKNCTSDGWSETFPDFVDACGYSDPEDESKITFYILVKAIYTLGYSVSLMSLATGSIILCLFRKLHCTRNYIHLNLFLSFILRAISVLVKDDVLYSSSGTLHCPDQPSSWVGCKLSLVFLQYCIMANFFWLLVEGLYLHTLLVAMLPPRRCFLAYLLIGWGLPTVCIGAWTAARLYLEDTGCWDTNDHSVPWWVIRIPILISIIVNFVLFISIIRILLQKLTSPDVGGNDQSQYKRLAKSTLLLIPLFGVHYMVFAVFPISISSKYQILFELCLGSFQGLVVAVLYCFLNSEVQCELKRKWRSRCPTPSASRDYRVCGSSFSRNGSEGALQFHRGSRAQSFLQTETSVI

In the case of “[K^15, R^16, L^27VIP(1-7), GRF(8-27)-NH2]”, the “potency as VPAC1 receptor selective agonist” value (VPAC1 receptor) is listed as “potency similar to PACAP38”, the “atrophy of the denervated medial gastrocnemius muscle (muscle weight, FIG. 1B)” value (“atrophy … (muscle weight, FIG. 1B)” below) [1] is listed as “inhibited atrophy” and the “muscle atrophy of the tibialis anterior induced by glucocorticoid administration (FIG. 3A)” value [2] is listed as “inhibited muscle atrophy”.
With “PACAP-38 (HSDGIFTDSYSRYRKQMAVKKYLAAVLGKRYKQRVKNK; ends and bridges not checked; UniProt P18509 132-169, looked up)” the “atrophy … (muscle weight, FIG. 1B)” value [1] was “inhibited atrophy”, the “atrophy of the denervated tibialis anterior muscle (muscle weight, FIG. 1A)” value [1] was “inhibited atrophy” and the “muscle atrophy of the medial gastrocnemius induced by glucocorticoid administration (FIG. 3B)” value [2] was “inhibits muscle atrophy”.
For `Cn1c(=O)c2[nH]cnc2n(C)c1=O` [Theophylline, theophylline], the “effect of theophylline administered by itself in the atrophy models” value (skeletal muscle atrophy) was “no effect”.
For Ro 25-1553, the “atrophy of the denervated EDL muscle (FIG. 5B)” value [3] was “inhibited atrophy”, the “atrophy of the denervated tibialis anterior muscle (FIG. 5A)” value [3] was “inhibited atrophy” and the “skeletal muscle mass and physical therapy needs” value [4] was “measurable preservation of skeletal muscle mass and reduced physical therapy needs”. The “atrophy of the denervated tibialis anterior muscle (muscle weight, FIG. 2A)” value ([5]; sciatic denervation) was “inhibited atrophy”, the “hypertrophy of the non-denervated (control) medial gastrocnemius muscle (FIG. 2B)” value [5] was “induced hypertrophy” and the “hypertrophy of the non-denervated (control) tibialis anterior muscle (FIG. 2A)” value [5] was “induced hypertrophy”. For the same compound, the “disuse-induced atrophy of the tibialis anterior muscle (FIG. 4A)” value [6] was “inhibited disuse-induced atrophy”, the “hypertrophy of the medial gastrocnemius muscle (normal, FIG. 4B)” value [6] was “induced hypertrophy” and the “potency as VPAC2 receptor selective agonist” value (VPAC2 receptor) was “potency similar to PACAP38”. The “atrophy … (muscle weight, FIG. 1B)” value [1] was “inhibited atrophy”, the “atrophy of the denervated tibialis anterior muscle (muscle weight, FIG. 1A)” value [1] was “inhibited atrophy” and the “muscle atrophy of the medial gastrocnemius induced by glucocorticoid administration (FIG. 3B)” value [2] was “inhibited muscle atrophy”. For the same compound, the “muscle atrophy of the tibialis anterior induced by glucocorticoid administration (FIG. 3A)” value [2] was “inhibited muscle atrophy”.
